Data taken from publication PMC8113538, “Acute toxicity analysis of an inhibitor of BCL2, Disarib, in rats” (Scientific Reports, 2021).

What was measured:
[1] = Pharmacokinetics in serum of Wistar rats after oral administration (HPLC); type: in vivo, Wistar rats (Rattus norvegicus); details: 50 mg/kg b. wt oral
Experimental: Wistar rats (Rattus norvegicus) were administered with 50 mg/kg Disarib orally, and blood was collected by heart-puncture method following sacrifice at different time points (15 min, 30 min, 1, 2, 4, 6, 8, 10, 12, 24, 48 and 72 h) following treatment. Blood was allowed to clot, and serum was separated by centrifugation (900×g, 10 min) and deproteinized by adding acetonitrile. Samples for standard calibration curve were prepared by spiking 100 μM Disarib in rat plasma. The supernatant was loaded onto a C18 column, and HPLC analysis was performed in acetonitrile:water gradient, as described before[23],[38] (Shimadzu, Kyoto, Japan). Disarib specific peak were acquired at 232 nm wavelength. At least two mice were sacrificed at each time point for the study. Pharmacokinetic parameters were analysed by using LabSolutions software (Shimadzu, Japan), and the values obtained were plotted with GraphPad Prism (ver5.1) software, where C is predicted concentration and t is time. Data was analysed using nonlinear regression analysis. Maximum drug plasma concentration (Cmax) and Time to reach Cmax was determind by area under the curve versus time curve. Clearance (Cl) and steady state volume of distribution (Vss) were calculated respectively by rate of drug elimination and amount of drug in the body at equilibrium condition vs steady state drug concentration in plasma.
The samples were analyzed by HPLC using the Shimadzu HPLC system. LC was carried out on the C18 analytical column. The mobile phase was the gradient of acetonitrile and water. Disarib specific peaks were detected at 232 nm. The injection volume was 20 μl, and the flow rate was 1.2 ml/min. The standard curves were constructed by plotting the peak area vs. concentration of Disarib[40].

Wistar rats [2] = test: Single-dose acute toxicity / LD50 determination with general observation; type: in vivo, Wistar rats (Rattus norvegicus)
Experimental: All the studies were designed according to the guidelines of the Central Drug Standard Control Organization (Schedule-Y-CDSCO, Appendix III), India (https://cdsco.gov.in/opencms/opencms/en/Drugs/New-Drugs/). Single-dose toxicity analysis was performed in male Wistar rats. Animals were segregated in groups of five, and Disarib was administered using oral gavage (100, 1000, 2000 mg/kg b. wt.). Carboxymethyl cellulose, used for preparing Disarib, served as vehicle control to feed control animals. Mortality, general appearance, and behavior were initially observed for 24 h. Animals were further observed for 14 days and were further subjected to toxicity analysis.
The median lethal dose was determined in male Wistar rats. […] Disarib was orally administered after making solution using carboxymethyl cellulose (100, 1000, 2000 mg/kg), and lethality was evaluated over 14 days after treatment. Carboxymethyl cellulose treated animals served as vehicle control.
General cage-side examination of the treated and control animals were performed every day during the experiment. General behavior, appearance, skin, hairs, secretion (lachrymation), and death were evaluated daily, according to the guidelines of CDSCO, India[41],[42].
Body weight was recorded on every 4th day from the date of administration of Disarib up to […]. Food and water consumption were monitored every day from the date of administration of the compound. During the present study, on every alternate days ~ 250 g food pellet and ~ 500 ml water were given to each cage (control and treatment groups).

Wistar rats [3] = test: Serum biochemistry (liver and kidney function); type: in vivo, Wistar rats (Rattus norvegicus); details: serum day 14
Experimental: After 14 days of Disarib administration, two animals were sacrificed using CO2 asphyxiation from each group, and blood was collected in tubes without using anticoagulant and centrifuged (900×g, 10 min). Serum glutamic pyruvic transaminase (SGPT), serum glutamic oxaloacetic transaminase (SGOT), alkaline phosphatase (ALP), albumin, total protein, bilirubin, blood urea nitrogen (BUN), creatinine, uric acid, and phosphorous were analyzed as described earlier[28],[29]. Analysis of serum samples was performed at Rohana Veterinary Diagnostic Lab, Bangalore, India.

bone marrow cells = test: Micronucleus assay for genotoxicity; type: in vivo; details: Wistar rats, 50 mg/kg b. wt. oral; 24, 48 and 72 h post-treatment
Experimental: To evaluate genotoxicity caused by Disarib at the effective dose, micronucleus assay was performed[32]–[34]. Wistar rats (n = 6) were orally administered with Disarib (50 mg/kg), and bone marrow cells were collected after 24, 48, and 72 h post-treatment. Bone marrow cells were flushed out in 1X PBS containing EDTA, centrifuged, fixed (2% PFA) and stained with DAPI. Cells exposed to γ-irradiation (4 Gy) served as a positive control for the assay and were imaged using a fluorescence microscope (Nikon, Tokyo, Japan). At least 500 cells were counted from each animal for each time point, and data was plotted and represented as a bar diagram.

BCL2 = test system: BCL2; set-up: method as in PMID 28223017, PMID 27693384; details: cited from earlier work
[4] = test system: interaction of BCL2 with BAX; set-up: method as in PMID 28223017; details: cited from earlier work
[5] = Wistar rats, 100, 1000, 2000 mg/kg oral

For `O=C1Nc2ccccc2/C1=C/c1c(-c2ccc(Br)cc2)nc2sc(Cc3ccc(Cl)cc3)nn12` [Disarib], the “maximum concentration (Cmax) in serum” value [1] was ~ 18 μg/ml, the “steady state volume of distribution (Vss)” value ([1]; estimated) was 4.16 L/kg and the clearance rate ([1]; estimated from rate of drug elimination) was 0.44 mL/min/kg. For the same compound, the t1/2 ([1]; serum) was 36 h, the “time to Cmax (Tmax)” value ([1]; serum) was 24 h and the “food and water consumption” value (Wistar rats [2]; Wistar rats, 100, 1000, 2000 mg/kg oral, assessed daily) was “no difference in eating and drinking habits”. The “cage-side signs (behavior, appearance, lachrymation, locomotion, hair, skin)” value (Wistar rats [2]; Wistar rats, 100, 1000, 2000 mg/kg oral, daily examination) was “comparable to the vehicle control group”, the body weight (Wistar rats [2]; Wistar rats, 100, 1000, 2000 mg/kg oral, weighed every 4 days up to 32 days) was “gradual increase in body weight of the animals, both in control and treated groups” and the “mortality and visible signs of toxicity” value (Wistar rats [2]; Wistar rats, highest dose 2000 mg/kg b. wt. oral) was “did not cause mortality or any visible sign of toxicity”. For the same compound, the “Maximum Tolerated Dose (MTD)” value (Wistar rats [2]; Wistar rats, single oral dose, estimated) was over 2000 mg/kg, the LD50 (Wistar rats [2]; male Wistar rats, single oral dose, 14 days observation) was over 2000 mg/kg b. wt and the “hepatic function tests (SGPT, ALP, SGOT, total protein, Albumin, Bilirubin)” value (Wistar rats [3]; [5]) was “did not cause any adverse effect on liver function”. The “renal function (BUN, Creatinine, Phosphorous, Uric acid) vs control” value (Wistar rats [3]; [5]) was “did not have any appreciable variation”, the “ALP level vs control” value (Wistar rats [3]; Wistar rats, 100 and 1000 mg/kg oral, higher than control) was “the increase was limited and was not significant” and the “SGOT level vs control” value (Wistar rats [3]; Wistar rats, maximal dose (2000 mg/kg) oral, within normal range, not significant) was “marginally higher”. The “genotoxicity (micronucleus formation in bone marrow cells)” value (bone marrow cells) was “no DNA damage induced by Disarib”, the “interaction with BCL2” value (BCL2) was “specifically interacted with BCL2” and the “disruption of BCL2-BAX interaction” value [4] was “did not disrupt the interaction of BCL2 with BAX”.
